Source: patent US20010034454A1, “Description anti-mitotic agents which inhibit tubulin polymerization” (BYLOR UNIVERSITY AND ARIZONA DESEASE CONTROL RESEARCH …, priority 1998, published 2001)
Values after ≈ are worked out from the molar mass of the structure shown. Where two headings read alike, the source gives them in different places.

Key:
P388 leukemia cells = assay: Cytotoxic assay with P388 leukemia cells; assay type: cell-based, mouse
Text: The tubulin polymerization compounds can also be tested for their ability to inhibit tumor cell growth.

tubulin = test system: T1, tubulin; assay: Tubulin polymerization assay; assay type: biochemical, bovine; settings: for IC50: purified tubulin […], GTP-induced, 350 nm, final steady-state number for compounds other than 1A and 10A, read-out: IC50 for inhibition of tubulin polymerization
T1 construct: Purified tubulin is obtained from bovine brain cells as described in Hamel and Lin
Protocol: The ability of the various above described compounds to inhibit tubulin polymerization can be determined by in vitro assay. A suitable assay system is that described by Bai et al. A method for purifying tubulin from bovine brain cells is described by Hamel and Lin.
IC50 values for tubulin polymerization were determined according to the procedure described in Bai et al. Purified tubulin is obtained from bovine brain cells as described in Hamel and Lin. Various amounts of inhibitor were preincubated for 15 minutes at 37° C. with purified tubulin. After the incubation period, the reaction was cooled and GTP was added to induce tubulin polymerization. Polymerization was then monitored in a Gilford spectrophotometer at 350 nm. The final reaction mixtures (0.25 ml) contained 1.5 mg/ml tubulin, 0.6 mg/ml microtubule-associated proteins (MAPs), 0.5 mM GTP, 0.5 mM MgCl2, 4% DMSO and 0.1 M 4-morpholineethanesulfonate buffer (MES, pH 6.4). […]

SW1736 = assay: Human cancer cell line studies, SW1736; assay type: cell-based; settings: Homo sapiens, SW-1736; Thyroid ca SW1736; read-out: GI50
Protocol: (§1) The assay used is described in Monks et al. Briefly, the cell suspensions, diluted according to tho particular cell type and the expected target cell density (5,000-40,000 cells per well based on cell growth characteristics), were added by pipet (100 μl) to 96-well microtiter plates. Inoculates were allowed a preincubation time of 24-28 hours at 37° C. for stabilization. Incubation with the inhibitor compounds lasted for 48 hours in 5% CO2 atmosphere and 100% humidity. Determination of cell growth was done by in situ fixation of cells, followed by staining with a protein-binding dye, sulforhodamine B (SRB), which binds to the basic amino acids of cellular macromolecules. The solubilized stain was measured spectrophotometrically.

SK-N-SH = assay: Human cancer cell line studies, SK-N-SH; assay type: cell-based; settings: Homo sapiens; Neuroblast SK-N-SH; read-out: GI50
Protocol: as §1

DU-145 = assay: Human cancer cell line studies, DU-145; assay type: cell-based; settings: Homo sapiens; Prostate DU-145; read-out: GI50
Protocol: as §1

NCI-H460 = assay: Growth inhibitory activity, human cancer cell line NCI-H460 (SRB); assay type: cell-based; settings: Homo sapiens; Lung-NSC NCI-H460; read-out: GI50
Protocol: as §1

FADU = assay: Human cancer cell line studies, FADU; assay type: cell-based; settings: Homo sapiens; Pharynx-sqam FADU; read-out: GI50
Protocol: as §1

BXPC-3 = assay: Human cancer cell line studies, BXPC-3; assay type: cell-based; settings: Homo sapiens; Pancreas adn BXPC-3; read-out: GI50
Protocol: as §1

[1] = P388 mouse leukemia, dosage required to inhibit 50% of cell growth

Row | Compound | ED50 (P388 leukemia cells; [1]) | tubulin polymerization inhibition (tubulin) | activity against P388 leukemia cells (P388 leukemia cells) | IC50 (P388 leukemia cells; P388 mouse leukemia, dosage required to inhibit 50% of cell growth, read-out: ED50 (the source's name)) | IC50 (P388 leukemia cells; Mus musculus, P388, read-out: ED50) | GI50 (SW1736) | polymerization curves at several concentrations (tubulin; 4, 10, and 40 μM) | GI50 (SK-N-SH) | GI50 (DU-145) | GI50 (NCI-H460) | GI50 (FADU) | GI50 (BXPC-3) | IC50 (tubulin)
1 | COc1ccc(/C=C\c2cc(OC)c(OC)c(OC)c2)cc1N(Cc1ccccc1)Cc1ccccc1 [5-[(Z)-2-(3′,4′,5′-trimethoxyphenyl)ethenyl]-2-methoxy-N,N-bis-(phenylmethyl)aniline, reference compound] | 33.9 µg/mL (≈ 68.4 µM) | – | – | – | – | – | – | – | – | – | – | – | –
2 | COc1ccc(-c2sc3cc(OC)ccc3c2C(=O)c2c(OC)cccc2OC)cc1 [Compound 2A, 3-(2′,6′-dimethoxybenzoyl)-2-(4′-methoxyphenyl)-6-methoxybenzo[b]thiophene] | >100 µg/mL | no observable tubulin polymerization inhibition activity | failed to show measurable activity against the leukemia cells | > 100 µg/mL | – | – | – | – | – | – | – | – | –
3 | COc1ccc(-c2sc3cc(OC)ccc3c2C(=O)c2cc(OC)cc(OC)c2)cc1 [Compound 3A, 3-(3′,5′-dimethoxybenzoyl)-2-(4′-methoxyphenyl)-6-methoxybenzo[b]thiophene] | >100 µg/mL | no observable tubulin polymerization inhibition activity | failed to show measurable activity against the leukemia cells | – | > 100 µg/mL | – | – | – | – | – | – | – | –
4 | CCOc1c(OC)cc(C(=O)c2c(-c3ccc(OC)cc3)sc3cc(OC)ccc23)cc1OC [Compound 10A, 3-(4′-ethoxy-3′,5′-dimethoxybenzoyl)-2-(4′-methoxyphenyl)-6-methoxybenzo[b]thiophene] | – | clear inhibition of tubulin polymerization of rate, but not of plateau | – | – | – | 0.31 µg/mL (≈ 0.648 µM) | nearly identical | 0.17 µg/mL (≈ 0.355 µM) | 0.35 µg/mL (≈ 0.731 µM) | 0.32 µg/mL (≈ 0.669 µM) | 0.31 µg/mL (≈ 0.648 µM) | 0.22 µg/mL (≈ 0.46 µM) | –
5 | COc1ccc(-c2sc3cc(OC)ccc3c2C(=O)c2ccc(N(C)C)cc2)cc1 [Compound 11A, 3-(4′-N,N-dimethylaminobenzoyl)-2-(4′-methoxyphenyl)-6-methoxybenzo[b]thiophene] | – | – | – | – | – | > 10 µg/mL | – | > 10 µg/mL | > 10 µg/mL | > 10 µg/mL | > 10 µg/mL | > 10 µg/mL | > 40 µM
6 | COc1ccc(-c2cc3c(OC)ccc(C(=O)c4cc(F)c(F)c(F)c4)c3s2)cc1 [Compound 12A, 7-(3′,4′,5′-trifluorobenzoyl)-2-(4′-methoxyphenyl)-4-methoxybenzo[b]thiophene] | – | – | – | – | – | > 10 µg/mL | – | > 10 µg/mL | > 10 µg/mL | > 10 µg/mL | 6.7 µg/mL (≈ 15.6 µM) | > 10 µg/mL | > 40 µM
7 | COc1ccc(-c2cc3c(OC)ccc(C(=O)c4cc(OC)c(OC)c(OC)c4)c3s2)cc1 [Compound 13A, 7-(3′,4′,5′-trimethoxybenzoyl)-2-(4′-methoxyphenyl)-4-methoxybenzo[b]thiophene] | – | – | – | – | – | > 10 µg/mL | – | > 10 µg/mL | > 10 µg/mL | > 10 µg/mL | 7.8 µg/mL (≈ 16.8 µM) | > 10 µg/mL | > 40 µM
8 | COc1ccc(-c2sc3cc(OC)ccc3c2C(=O)c2cc(F)c(F)c(F)c2)cc1 [Compound 14A, 3-(3′,4′,5′-trifluorobenzoyl)-2-(4′-methoxyphenyl)-6-methoxybenzo[b]thiophene] | – | – | – | – | – | > 10 µg/mL | – | > 10 µg/mL | > 10 µg/mL | > 10 µg/mL | 13.6 µg/mL (≈ 31.7 µM) | > 10 µg/mL | > 40 µM
9 | COc1ccc(-c2sc3cc(OC)ccc3c2C(=O)c2c(F)c(F)c(F)c(F)c2F)cc1 [Compound 15A, 3-(2′,3′,4′,5′,6′-pentafluorobenzoyl)-2-(4′-methoxyphenyl)-6-methoxybenzo[b]thiophene] | – | – | – | – | – | 4 µg/mL (≈ 8.61 µM) | – | 1.4 µg/mL (≈ 3.01 µM) | 5 µg/mL (≈ 10.8 µM) | 7.9 µg/mL (≈ 17 µM) | 1.3 µg/mL (≈ 2.8 µM) | 5.9 µg/mL (≈ 12.7 µM) | > 40 µM
